In patent publication US20140030201A1, “A SKIN LIGHTENING COMPOSITION” (priority 2010, published 2014):
“And” between values parts separate entries of the source, which are not always exact repeats. Identical values can stand only once. Like-named read-outs stand apart in the source and are kept apart here. Values belong to the compound of their own block, whether it stands above or below them.

What was measured:
B16 mouse melanoma cells = assay: Melanogenesis in B16 monolayer cultures (melanin normalised to total protein); format: cell-based; conditions: for Normalised melanin: 72 hours; for Inhibition of melanin production (in words): B16 monolayer cultures
Protocol: B16 mouse melanoma cells were cultured in Eagle's minimal essential medium (EMEM) supplemented with 10% foetal calf serum (FCS) and 2 mM L-glutamine at 37° C., 5% CO2 in T175 tissue culture flasks and were sub-cultured twice weekly using trypsin in EDTA. For assay, 25 000 cells per well in 500 μl volume were seeded to a 48 well plate and adhered overnight. The following morning standard culture media was replaced by EMEM, 10% FCS, 4 mM L-glutamine (500 μl) and test actives added. Cells were then incubated for 72 hours. At 72 after which the supernatants were removed and analysed for melanin content by spectrophometry at 450 nm against a reference standard curve. The B16 cell monolayer was dissolved in Triton™/PBS at 4° C. for 20 minutes, centrifuged at 13 000 rpm for 5 minutes at 4° C. and analysed for total protein content using a standard bicinchoninic acid assay (BCA) assay against a reference standard curve. Melanin results were normalised to total protein.
Each test active was applied in DMSO to n=3 cultures.

MelanoDerm™ cultures = assay: Histological analysis of MelanoDerm cultures (Masson-Fontana staining, MART-1 immuno-staining); conditions: 1 μM, 14 days, versus DMSO control
[1] = system: B16 F10 cells (mouse melanoma cell line); conditions: 3 days; for Average μg melanin/cell (4 tests): media control 0.00030445, DMSO control 0.00028774; for % vehicle control (melanin per cell): media control 100, DMSO control 94.51056836
Protocol: B16 F10 cells (mouse melanoma cell line) were obtained from ATCC and grown in Lonza Biowhittaker BE12-662F media. Trypsin in ethylenediaminetetraacetic acid (EDTA) (Sigma T3924) and Dulbecco's Phosphate Buffered Saline (DPBS) (Sigma D8537) were used to split the cells. Plates were set up at a concentration of 2.5×10^4 cells per well in 48 well plates in Phenol Red free media (Sigma D1145).
After overnight incubation, media was removed and media with sulforaphane (available from Sigma-Aldrich Company Limited as at least 95% L-sulforaphane) in DMSO and ketoconazole in DMSO solutions were added. 500 μl of the media and solutions were added to 4 wells of a 48 well plate and the plates incubated at 37° C. for a further 3 days. Thereafter the melanin concentration and cell numbers were measured.
Melanin concentration was measured by making up standards each day and pipetting 100 μl of each standard in duplicate onto Greiner plates. For the blank plate Phenol Red free media was used. 100 μl from each well was also pipetted in duplicate onto Greiner plates and the plates read on a Dynex plate reader at 450 nm.
Cell numbers were measured by washing the wells twice with phosphated buffer solution (PBS). Then 1 ml of trypsin EDTA diluted in PBS at 1:10 v/v was added to each well and the wells observed for cell detachment. All media from each well was then collected the media assayed by adding 100 μl of the media to 9.9 ml of Coulter Isoton II diluent. Cell numbers were assessed using the Z1 Coulter Particle Counter.

[2] = In-vitro delivery of ketoconazole into human skin (diffusion cells, tape stripping); format: in vitro ADME
Protocol: This study quantified the in-vitro human skin penetration after application of a cream formulation containing 2% (w/w) ketoconazole (Daktarin™ Gold). Eight diffusion cells were prepared (using female abdominal skin from three donors) plus three undosed control cells (for assay validation purposes). Epidermal membranes were used and integrity assessed by measuring electrical resistance. Permeation of active was measured over 24 hours following application of a target 5 mg/cm2 dose. Suitable liquid chromatography analytical assays were developed, with active peaks separated from formulation, skin and tape strip derived peaks.
Distribution within the skin at 24 hours was determined by measuring the levels of active within the stratum corneum (tape strips) and the epidermis plus any remaining lower stratum corneum (following tape stripping). The skin was wiped prior to tape stripping to remove active remaining at the surface. Levels in the donor chamber sealing grease and on the donor chambers were also measured (donor chamber wash).

[3] = system: normal human melanocytes (NHM); assay: Growth and morphology of normal human melanocytes in monolayer culture (light microscopy); format: cell-based; conditions: 1 μM
Protocol: Primary human melanocytes were obtained from Invitrogen Cascade Biologics (HEMn-DP) and grown in Cascade melanocyte media (M-254CF-500+human melanocyte growth supplement (HMGS) supplement containing phorbol myristate acetate (PMA)) according to the manufacturer's instructions. Once established, cultures were routinely grown in T175 tissue culture flasks and could generally be passaged for use up to six (P6) or seven (P7) times. Once the cells reached about 70% confluence they were treated with trypsin, spun down and re-suspended in an appropriate volume of media ready for plating out. Cells seeded at 2×10^5 cells per well in a 6-well plate and incubated in 2 ml medium per well. Cells were allowed 16 hours to settle on the cover-slips before addition of treatments. Cells were treated for 5 days with DMSO vehicle or test actives dissolved in DMSO and light microscope images captured.
NHMs grown in monolayer cultures were treated with 1 μM ketoconazole for 5 days and assessed by light microscopy.

[4] = system: MelanoDerm™ cultures (pigmented 3D-Living Skin Equivalent model); assay: Melanogenesis in MelanoDerm cultures (extracted melanin normalised to protein)
B16 melanoma cells = conditions: cited from earlier work
[5] = cream with 2% (w/w) ketoconazole (Daktarin Gold), 5 mg/cm2, 24 hours, n = 8
[6] = stratum corneum tape strips, cream with 2% (w/w) ketoconazole, 5 mg/cm2, 24 hours, n = 8
[7] = 20 μM, individual cultures, second DMSO control 0.187, 0.188, 0.172

Ketoconazole (% recovered), Donor chamber [2, 5]: 4.00 ± 1.26 % recovered
Ketoconazole (% recovered), Overall recovery [2, 5]: 99.4 ± 1.2 % recovered
Ketoconazole (% recovered), Permeation chamber [2, 5]: 3.49 ± 0.26 % recovered
Ketoconazole (% recovered), Surface of skin [2, 5]: 83.6 ± 2.4 % recovered
Ketoconazole (% recovered), Epidermis ([2]; includes any stratum corneum remaining after tape stripping, cream with 2% (w/w) ketoconazole, 5 mg/cm2, 24 hours, n = 8): 2.02 ± 0.74 % recovered
Ketoconazole (% recovered), Strip 1 ([2]; stratum corneum tape strip, cream with 2% (w/w) ketoconazole, 5 mg/cm2, 24 hours, n = 8): 4.92 ± 2.03 % recovered
Ketoconazole (% recovered), Strips 2-3 [2, 6]: 0.858 ± 0.255 % recovered
Ketoconazole (% recovered), Strips 4-6 [2, 6]: 0.318 ± 0.062 % recovered
Ketoconazole (% recovered), Strips 7-10 [2, 6]: 0.192 ± 0.046 % recovered
Proportion of bipolar cells (normal cells) ([3]; 5 days, versus control, FIG. 3): practically identical to the control
SMILES: CC(=O)N1CCN(c2ccc(OC[C@H]3CO[C@](Cn4ccnc4)(c4ccc(Cl)cc4Cl)O3)cc2)CC1 (racemic) [ketoconazole]
Normalised melanin (B16 mouse melanoma cells; 5 μM, n=3 cultures, first DMSO control 0.186 ± 0.021): 0.173 ± 0.032 μg/mg protein
Normalised melanin (B16 mouse melanoma cells; 20 μM, n=3 cultures, first DMSO control 0.186 ± 0.021): 0.004 ± 0.001 μg/mg protein
Normalised melanin (B16 mouse melanoma cells; 50 μM, n=3 cultures, first DMSO control 0.186 ± 0.021): 0.007 ± 0.003 μg/mg protein
Inhibition of melanin production (in words) (B16 mouse melanoma cells; at 1 μM as printed): very effectively inhibits melanin production
Melanin content of the basal melanocytes, Masson-Fontana staining (MelanoDerm™ cultures; FIG. 1): marked effect on the melanin content of the basal melanocytes
Presence of melanocytes, MART-1 immuno-staining (MelanoDerm™ cultures; FIG. 2): not due to the elimination of melanocytes
Average μg melanin/cell (4 tests) ([1]; 1 μM): 0.0002916 μg melanin/cell
% vehicle control (melanin per cell) ([1]; 1 μM): 95.76 % vehicle control
Delivery into human skin (in words) ([2]; cream with 2% (w/w) ketoconazole, 24 hours): low but adequate delivery into human skin
Effect on viability of monolayer human melanocytes [3]: no detectable effect on the viability
Effect on NHM morphology or proliferation ([3]; 5 days, light microscopy, FIG. 3): no evidence that treatment had an adverse effect on NHM morphology or proliferation
Effect on viability of epidermal cultures ([4]; 1 μM): no detectable effect on the viability
Normalised melanin ([4]; 1 μM, 14 days, individual cultures, DMSO control 74.560, 103.845, 90.333): 58.573 μg/mg protein and 59.276 μg/mg protein and 57.292 μg/mg protein
Levels of extractable melanin (in words) ([4]; 1 μM, 14 days, versus DMSO control): consistently reduced the levels of extractable melanin
Inhibition of melanin production (in words) ([4]; MelanoDerm cultures, at 1 μM): very effectively inhibits melanin production

SMILES: C[S+]([O-])CCCCN=C=S [L-sulforaphane, sulforaphane]
Average μg melanin/cell (4 tests) ([1]; 10 μM): 0.0002645 μg melanin/cell
% vehicle control (melanin per cell) ([1]; 10 μM): 86.89 % vehicle control

SMILES: OC(Cn1cncn1)(Cn1cncn1)c1ccc(F)cc1F [flucoazole, fluconazole]
Normalised melanin (B16 mouse melanoma cells; [7]): 0.232 μg/mg protein and 0.214 μg/mg protein and 0.229 μg/mg protein
Inhibition of melanin production (in words) (B16 mouse melanoma cells; other azoles): did not effectively inhibit melanin production

SMILES: c1c[nH]cn1 [imidazole]
Normalised melanin (B16 mouse melanoma cells; [7]): 0.180 μg/mg protein and 0.231 μg/mg protein and 0.240 μg/mg protein
Inhibition of melanin production (in words) (B16 mouse melanoma cells; other azoles): did not effectively inhibit melanin production

SMILES: Clc1ccc(COC(Cn2ccnc2)c2ccc(Cl)cc2Cl)c(Cl)c1 (centres unmarked) [miconazole]
Cellular viability (B16 melanoma cells; accompanying the melanin decrease): decreased cellular viability
Melanin content (B16 melanoma cells; compared with untreated cells): dose dependently decreased
Tyrosinase activity (B16 melanoma cells; compared with untreated cells): dose dependently decreased

SMILES: c1cocn1 [oxazole]
Normalised melanin (B16 mouse melanoma cells; [7]): 0.217 μg/mg protein and 0.210 μg/mg protein and 0.185 μg/mg protein
Inhibition of melanin production (in words) (B16 mouse melanoma cells; other azoles): did not effectively inhibit melanin production

SMILES: c1cscn1 [thiazole]
Normalised melanin (B16 mouse melanoma cells; [7]): 0.228 μg/mg protein and 0.255 μg/mg protein and 0.236 μg/mg protein
Inhibition of melanin production (in words) (B16 mouse melanoma cells; other azoles): did not effectively inhibit melanin production
